Tests used:
[1] = system: control 1321N1 astrocytoma cells; experiment: calcium flux in control 1321N1 astrocytoma cells; assay type: cell-based, human; details: 10 µM, non-transfected 1321N1 astrocytoma cells
[2] = stability of the C-O-P bond in aqueous medium at pH 1.5; assay type: physicochemical; details: aqueous medium at pH 1.5, over 24 h
cardiac P2X receptor = details: cited from earlier work
aorta ring preparations = details: cited from earlier work
CSQ-overexpressing mouse = details: Alzet mini-osmotic pump; cited from earlier work
[3] = hydrolysis of the 5’-phosphate in the presence of mammalian cell membranes; assay type: in vitro ADME; details: incubation at 37°C with 1321N1 astrocytoma cell membranes (data not shown)

CSc1nc(N)c2ncn([C@@H]3O[C@H](COP(=O)(O)OP(=O)(O)O)[C@@H](O)[C@H]3O)c2n1 [Compound 2-MeSADP, 2-MeSADP]
change in intracellular Ca2+ in control cells [1]: no change

Nc1nc(Cl)nc2c1ncn2[C@H]1[C@H](O)[C@H](O)[C@@]2(COP(=O)(O)O)C[C@H]12 [Compound 3, (1’S,2’R,3’S,4’R,5’S)-4-(6-amino-2-chloro-9H-purin-9-yl)-1-[phosphoryloxymethyl] bicyclo[3.1.0]hexane-2,3-diol]
stability of the C-O-P bond [2]: stable
current induced in the CSQ myocyte (cardiac P2X receptor; CSQ myocyte): induced a current
vasodilator action (aorta ring preparations): devoid of any vasodilator action
longevity compared to vehicle-injected mice (CSQ-overexpressing mouse): significantly increased longevity
hydrolysis of the 5’-phosphate [3]: considerable hydrolysis

CNc1nc(I)nc2c1ncn2[C@H]1C[C@H](OP(=O)(O)O)[C@]2(COP(=O)(O)O)C[C@H]12 [MRS2500]
block of the membrane current evoked by 3 (cardiac P2X receptor; voltage clamp in mouse cardiac myocytes): could not block

— paper PMC2880888 (Journal of medicinal chemistry, 2010)
